Experimental data published in PMC4965013, “Open Source Drug Discovery with the Malaria Box Compound Collection for Neglected Diseases and Beyond” (PLoS Pathogens, 2016).
Values joined by “and” are separate entries in the source; they are usually repeats but may differ in a detail not shown here. Identical values can stand only once. One block for each compound: values may come before it.

Experiments:
[1] = system: bovine Babesia and equine Babesia and Theileria parasites; test: Babesia and Theileria fluorescence-based assay, all four species; type: cell-based, B. bovis, B. bigemina, T. equi, B. caballi; details: for IC50: Babesia, range over compounds and species, read-out: IC50s for both bovine Babesia and equine Babesia and Theileria parasites
[2] = system: P. falciparum 3D7 trophozoites; test: Metabolomic fingerprint profiling LC-MS; type: cell-based, Plasmodium falciparum; set-up: UDP-D-glucose / ADP-D-glucose: unit not given here; details: for Acetyllysine / N-acetyl-L-ornithine / N-carbamoyl-L-aspartate / NADPH / dAMP / dCMP / dTDP / dTMP / dTTP / dihydroorotate / orotate / DLH / DLS/SDL/SID / PD / PEE / PVNF / 3-phosphoglycerate / ADP-D-glucose / ATP / CDP / D-sedoheptulose-1/7-phosphate / FAD / GMP / NAD+ / NADP+ / Octoluse Bisphosphate / Pyroglutamic acid / UDP-D-glucose / UDP-D-glucuronate / UDP-N-acetyl-glucosamine / UDP / UMP / UTP / a-ketoglutarate / citrate/isocitrate / cytidine / dATP / dGMP/AMP / fumarate / glucose-1/6-phosphate / glycerate / guanine / guanosine / hypoxanthine / indole / inosine / nicotinate / ornithine / phosphoenolpyruvate / pyruvate / ribose-phosphate / sarcosine/alanine / sn-glycerol-3-phosphate / succinate/methylmalonic acid / uridine / xanthosine: S2 Table Metabolomics; for Acetyllysine: metabolite Acetyllysine; for N-acetyl-L-ornithine: metabolite N-acetyl-L-ornithine; for N-carbamoyl-L-aspartate: metabolite N-carbamoyl-L-aspartate; for NADPH: metabolite NADPH; for dAMP: metabolite dAMP; for dCMP: metabolite dCMP; for dTDP: metabolite dTDP; for dTMP: metabolite dTMP; for dTTP: metabolite dTTP; for dihydroorotate: metabolite dihydroorotate; for orotate: metabolite orotate; for DLH: peptide DLH; for DLS/SDL/SID: peptide DLS/SDL/SID; for PD: peptide PD; for PEE: peptide PEE; for PVNF: peptide PVNF; for 3-phosphoglycerate: metabolite 3-phosphoglycerate; for ADP-D-glucose: metabolite ADP-D-glucose; for ATP: metabolite ATP; for CDP: metabolite CDP; for CDP / D-sedoheptulose-1/7-phosphate / GMP / Octoluse Bisphosphate / UDP / UMP / UTP / citrate/isocitrate / dGMP/AMP / fumarate / glucose-1/6-phosphate / glycerate / guanine / guanosine / inosine / pyruvate / sarcosine/alanine / succinate/methylmalonic acid / uridine / xanthosine: change in metabolite level after compound treatment; for D-sedoheptulose-1/7-phosphate: metabolite D-sedoheptulose-1/7-phosphate; for FAD: metabolite FAD; for GMP: metabolite GMP; for NAD+: metabolite NAD+; for NADP+: metabolite NADP+; for Octoluse Bisphosphate: metabolite Octoluse Bisphosphate; for Pyroglutamic acid: metabolite Pyroglutamic acid; for UDP-D-glucose: metabolite UDP-D-glucose; for UDP-D-glucuronate: metabolite UDP-D-glucuronate; for UDP-N-acetyl-glucosamine: metabolite UDP-N-acetyl-glucosamine; for UDP: metabolite UDP; for UMP: metabolite UMP; for UTP: metabolite UTP; for a-ketoglutarate: metabolite a-ketoglutarate; for citrate/isocitrate: metabolite citrate/isocitrate; for cytidine: metabolite cytidine; for dATP: metabolite dATP; for dGMP/AMP: metabolite dGMP/AMP; for fumarate: metabolite fumarate; for glucose-1/6-phosphate: metabolite glucose-1/6-phosphate; for glycerate: metabolite glycerate; for guanine: metabolite guanine; for guanosine: metabolite guanosine; for hypoxanthine: metabolite hypoxanthine; for indole: metabolite indole; for inosine: metabolite inosine; for 2_3-Diphosphoglyceric acid / 4-phosphopantothenate / 6-phospho-D-gluconate / FMN / IMP / Pyrophosphate / Sedoheptoluse bisphosphate / cyclic-AMP / glutathione disulfide / lactate / myo-inositol: metabolite level change after treatment; for nicotinate: metabolite nicotinate; for ornithine: metabolite ornithine; for phosphoenolpyruvate: metabolite phosphoenolpyruvate; for pyruvate: metabolite pyruvate; for ribose-phosphate: metabolite ribose-phosphate; for sarcosine/alanine: metabolite sarcosine/alanine; for sn-glycerol-3-phosphate: metabolite sn-glycerol-3-phosphate; for succinate/methylmalonic acid: metabolite succinate/methylmalonic acid; for uridine: metabolite uridine; for xanthosine: metabolite xanthosine
P. falciparum = test: EC50 listed in S2 Table Metabolomics (used to set the concentration tested); type: cell-based; details: Plasmodium falciparum; EC50 used for Factor_XEC50 in metabolomics; read-out: EC50_nM
PfPMT = PfPMT (Plasmodium falciparum, UniProt Q8IDQ9); test: PfPMT gene replacement yeast growth; details: 100µM
[3] = system: NCI60 human tumor cell lines; test: NCI60 5-dose (dose-response) assay; type: cell-based
Text: Columns IE-KK. NCI: Misra group (data presented first in this paper). NCI60 anti-tumor cell activity. Methods: […] These 60 cell lines, along with others, have been developed at NCI and have been maintained and distributed for research purposes by NCI for over 25 years. The experimental readout provides both inhibition of cell growth and cell kill. The screen was originally designed to prioritize agents for further evaluation. […] This is the same as for the 5-dose assay, described on http://dtp.cancer.gov/branches/btb/ivclsp.html. […] Testing beyond the initial screen: There were 133 compounds that passed threshold to proceed to 5-dose (dose-response) (data are available for the 133 compounds at the DTP public website (dtp.cancer.gov) by searching either the MMV number or NSC number). After examination of the 5-dose data, 10 compounds were selected for repeat testing based generally on potency, differential cell activity or activity on an individual cell lines or cell line panel. A summary of the data for the 10 compounds of interest is in the table below.

[4] = mean over cell lines of one experiment, listed as 766470/2

PfPMT, sequence (Q8IDQ9 whole entry): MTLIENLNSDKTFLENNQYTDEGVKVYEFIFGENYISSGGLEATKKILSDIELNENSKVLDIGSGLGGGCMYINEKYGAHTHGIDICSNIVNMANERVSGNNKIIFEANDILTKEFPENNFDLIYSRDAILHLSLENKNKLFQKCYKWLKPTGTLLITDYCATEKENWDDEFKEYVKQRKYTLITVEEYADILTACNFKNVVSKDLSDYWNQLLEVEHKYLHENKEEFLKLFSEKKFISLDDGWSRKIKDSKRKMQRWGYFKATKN

anti-Babesia and anti-Theileria hits, IC50 in words [1]: nanomolar IC50s | IC50 [1]: 43 to 750 nM
Structure (SMILES): Cn1c(=O)n(C)c2cc(CNCCNc3ccnc4cc(Cl)ccc34)ccc21 [MMV665875]
mean selectivity indices (SI) [1]: greater than 230

anti-Babesia and anti-Theileria hits, IC50 in words [1]: nanomolar IC50s | IC50 [1]: 43 to 750 nM
Structure (SMILES): CN(C)c1ccc(N=Cc2ccc(N3CCOCC3)cc2)cc1 [MMV073843]
mean selectivity indices (SI) [1]: greater than 230

anti-Babesia and anti-Theileria hits, IC50 in words [1]: nanomolar IC50s | IC50 [1]: 43 to 750 nM
Structure (SMILES): CCCC(c1nnnn1C1CCCCC1)N1CCN(C(=O)c2ccco2)CC1 (centres unmarked) [MMV666093]
mean selectivity indices (SI) [1]: greater than 230

anti-Babesia and anti-Theileria hits, IC50 in words [1]: nanomolar IC50s
Structure (SMILES): CC(C)(C)CC(C)(C)NCC(O)COc1ccc(Cl)cc1Cl (centres unmarked) [MMV396794]

The next lines start with the compound.

Structure (SMILES): CC(C)CCNCC(O)Cn1c2ccccc2c2ccccc21 (centres unmarked) [MMV006787]
anti-Babesia and anti-Theileria hits, IC50 in words [1]: nanomolar IC50s

Structure (SMILES): CCOc1ccc(CN2CCN(CC(O)COc3ccc(OCC(O)CN4CCN(Cc5ccc(OCC)cc5)CC4)cc3)CC2)cc1 (centres unmarked) [MMV007092]
anti-Babesia and anti-Theileria hits, IC50 in words [1]: nanomolar IC50s

Structure (SMILES): Cc1cc(N2CCN(C3CCCC3)CC2)n2c(nc3ccccc32)c1C#N [MMV006706]
anti-Babesia and anti-Theileria hits, IC50 in words [1]: nanomolar IC50s | mean selectivity indices (SI) [1]: greater than 230 | IC50 [1]: 43 to 750 nM

Structure (SMILES): CCc1ccc(Nc2cc(C)c3ccc(O)cc3n2)cc1 [MMV000570]
Acetyllysine [2]: -3.5798 | N-acetyl-L-ornithine [2]: -2.11 | N-carbamoyl-L-aspartate [2]: -1.956 | NADPH [2]: 0.5669 | dAMP [2]: 0.09919 | dCMP [2]: -0.6377 | dTDP [2]: 0.1581 | dTMP [2]: 0.002348 | dTTP [2]: -0.746 | dihydroorotate [2]: -1.827 | orotate [2]: -1.158 | DLH [2]: -3.486 | DLS/SDL/SID [2]: -2.98 | PD [2]: -3.426 | PEE [2]: -2.976 | PVNF [2]: -3.666 | 3-phosphoglycerate [2]: -0.3004 | ADP-D-glucose [2]: -0.2531 | ATP [2]: -0.4297 | CDP [2]: 0.1199 | D-sedoheptulose-1/7-phosphate [2]: -0.03599 | FAD [2]: 0.02687 | GMP [2]: -0.7921 | NAD+ [2]: -0.005921 | NADP+ [2]: 0.04495 | Octoluse Bisphosphate [2]: -0.7521 | Pyroglutamic acid [2]: 0.02528 | UDP-D-glucose [2]: -0.0202 | UDP-D-glucuronate [2]: -0.1762 | UDP-N-acetyl-glucosamine [2]: -0.01786 | UDP [2]: 0.2064 | UMP [2]: -0.3865 | UTP [2]: -0.5565 | a-ketoglutarate [2]: -0.893 | citrate/isocitrate [2]: -0.9405 | cytidine [2]: 0.2459 | dATP [2]: 0.202 | dGMP/AMP [2]: 0.175 | fumarate [2]: -1.642 | glucose-1/6-phosphate [2]: -0.09278 | glycerate [2]: -0.2054 | guanine [2]: -0.06952 | guanosine [2]: -0.3954 | hypoxanthine [2]: 0.06102 | indole [2]: -0.08521 | inosine [2]: -0.1832 | 2_3-Diphosphoglyceric acid [2]: -0.3845 | 4-phosphopantothenate [2]: -0.2389 | 6-phospho-D-gluconate [2]: -0.3077 | FMN [2]: -0.01655 | IMP [2]: -0.277 | Pyrophosphate [2]: 0.07301 | Sedoheptoluse bisphosphate [2]: -0.5323 | cyclic-AMP [2]: -0.9231 | glutathione disulfide [2]: -0.5684 | lactate [2]: -0.3085 | myo-inositol [2]: -0.5155 | nicotinate [2]: 0.1664 | ornithine [2]: -0.4755 | phosphoenolpyruvate [2]: -0.0203 | pyruvate [2]: 0.06241 | ribose-phosphate [2]: -0.6825 | sarcosine/alanine [2]: -1.674 | sn-glycerol-3-phosphate [2]: -0.5868 | succinate/methylmalonic acid [2]: -0.5023 | uridine [2]: -0.4463 | xanthosine [2]: -1.566 | EC50 (P. falciparum): 194 nM | candidate inhibitors of PfPMT activity (yeast functional assay) (PfPMT): candidate inhibitors of PfPMT activity

Structure (SMILES): COc1ccc(-c2nc3cc(Cc4ccc5[nH]c(-c6ccc(OC)cc6)nc5c4)ccc3[nH]2)cc1 [MMV007384]
Notes (NCI60 5-dose activity pattern) [3]: Colon, differential, potent | MGLI50 = Mean Growth Log I50 ([3]; 5-dose, mean over NCI60 panel): -7.34 | _MID Log10GI50 [3, 4]: -7.42 Molar and -7.34 Molar | _MID Log10LC50 [3, 4]: -5.38 Molar and -5.32 Molar | _MID Log10TGI [3, 4]: -6.22 Molar and -6.17 Molar | Acetyllysine [2]: -1.262 | N-acetyl-L-ornithine [2]: -1.162 | N-carbamoyl-L-aspartate [2]: -0.09766 | NADPH [2]: -0.9181 | dAMP [2]: 0.6855 | dCMP [2]: 0.07883 | dTDP [2]: 0.07329 | dTMP [2]: 0.1259 | dTTP [2]: -0.4561 | dihydroorotate [2]: 0.3461 | orotate [2]: 0.3571 | DLH [2]: -1.971 | DLS/SDL/SID [2]: -1.761 | PD [2]: -1.296 | PEE [2]: -1.3661 | PVNF [2]: -1.589 | 3-phosphoglycerate [2]: -0.215 | ADP-D-glucose [2]: -0.07535 | ATP [2]: -0.4674 | CDP [2]: -0.349 | D-sedoheptulose-1/7-phosphate [2]: -0.5757 | FAD [2]: -0.3245 | GMP [2]: -0.4418 | NAD+ [2]: -0.0839 | NADP+ [2]: -0.1415 | Octoluse Bisphosphate [2]: -0.7079 | Pyroglutamic acid [2]: 1.1726 | UDP-D-glucose [2]: -0.1169 | UDP-D-glucuronate [2]: -0.3283 | UDP-N-acetyl-glucosamine [2]: -0.1799 | UDP [2]: -0.2172 | UMP [2]: -0.3886 | UTP [2]: -0.61 | a-ketoglutarate [2]: 0.7257 | citrate/isocitrate [2]: 1.281 | cytidine [2]: 0.03237 | dATP [2]: -0.2668 | dGMP/AMP [2]: 0.1319 | fumarate [2]: 0.03505 | glucose-1/6-phosphate [2]: 0.02257 | glycerate [2]: 0.3902 | guanine [2]: 0.5342 | guanosine [2]: 0.3398 | hypoxanthine [2]: 1.128 | indole [2]: 0.6274 | inosine [2]: 0.7464 | 2_3-Diphosphoglyceric acid [2]: -0.7853 | 4-phosphopantothenate [2]: 0.02171 | 6-phospho-D-gluconate [2]: -0.4966 | FMN [2]: -0.1132 | IMP [2]: -0.008592 | Pyrophosphate [2]: -0.8081 | Sedoheptoluse bisphosphate [2]: -0.4298 | cyclic-AMP [2]: -0.3368 | glutathione disulfide [2]: -0.6284 | lactate [2]: 0.4073 | myo-inositol [2]: -0.09775 | nicotinate [2]: 1.038 | ornithine [2]: 0.535 | phosphoenolpyruvate [2]: 0.008692 | pyruvate [2]: 0.9693 | ribose-phosphate [2]: -0.5692 | sarcosine/alanine [2]: -0.2789 | sn-glycerol-3-phosphate [2]: -0.4175 | succinate/methylmalonic acid [2]: -0.1567 | uridine [2]: 0.8329 | xanthosine [2]: 0.2641 | EC50 (P. falciparum): 176 nM | candidate inhibitors of PfPMT activity (yeast functional assay) (PfPMT): candidate inhibitors of PfPMT activity
